# In patent US9492471B2, “Methods of treating a disease or disorder associated with Bruton'S Tyrosine Kinase” (Celgene Avilomics Research, Inc., priority 2013, dated 2016):
# Where two headings read alike, the source gives them in different places.
# Assays:
# Experiment in all cases: HotSpot kinase profiling
# Format in all cases: biochemical
# [1] = molecular target: T1, CDK1/cyclin A (Homo sapiens, UniProt P06493)
# T1 construct: purchased Reaction Biology Corp
# Summary of the method: (§1)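 P81 filtration radiometric readout; 2 h incubation at room temperature; 0.1% phosphoric acid wash; DMSO negative control; % inhibition, mean of replicate runs.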
# [2] = molecular target: T2, CDK6/cyclin D1 (Homo sapiens, UniProt Q00534)
# T2 construct: purchased Reaction Biology Corp
# Summary of the method: as §1
# [3] = molecular target: T3, CDK9/cyclin T1 (Homo sapiens, UniProt P50750)
# T3 construct: purchased Reaction Biology Corp
# Summary of the method: as §1
# [4] = molecular target: T4, EPHB2 (Homo sapiens, UniProt P29323)
# T4 construct: purchased Reaction Biology Corp
# T4 sequence (P29323 19-1055): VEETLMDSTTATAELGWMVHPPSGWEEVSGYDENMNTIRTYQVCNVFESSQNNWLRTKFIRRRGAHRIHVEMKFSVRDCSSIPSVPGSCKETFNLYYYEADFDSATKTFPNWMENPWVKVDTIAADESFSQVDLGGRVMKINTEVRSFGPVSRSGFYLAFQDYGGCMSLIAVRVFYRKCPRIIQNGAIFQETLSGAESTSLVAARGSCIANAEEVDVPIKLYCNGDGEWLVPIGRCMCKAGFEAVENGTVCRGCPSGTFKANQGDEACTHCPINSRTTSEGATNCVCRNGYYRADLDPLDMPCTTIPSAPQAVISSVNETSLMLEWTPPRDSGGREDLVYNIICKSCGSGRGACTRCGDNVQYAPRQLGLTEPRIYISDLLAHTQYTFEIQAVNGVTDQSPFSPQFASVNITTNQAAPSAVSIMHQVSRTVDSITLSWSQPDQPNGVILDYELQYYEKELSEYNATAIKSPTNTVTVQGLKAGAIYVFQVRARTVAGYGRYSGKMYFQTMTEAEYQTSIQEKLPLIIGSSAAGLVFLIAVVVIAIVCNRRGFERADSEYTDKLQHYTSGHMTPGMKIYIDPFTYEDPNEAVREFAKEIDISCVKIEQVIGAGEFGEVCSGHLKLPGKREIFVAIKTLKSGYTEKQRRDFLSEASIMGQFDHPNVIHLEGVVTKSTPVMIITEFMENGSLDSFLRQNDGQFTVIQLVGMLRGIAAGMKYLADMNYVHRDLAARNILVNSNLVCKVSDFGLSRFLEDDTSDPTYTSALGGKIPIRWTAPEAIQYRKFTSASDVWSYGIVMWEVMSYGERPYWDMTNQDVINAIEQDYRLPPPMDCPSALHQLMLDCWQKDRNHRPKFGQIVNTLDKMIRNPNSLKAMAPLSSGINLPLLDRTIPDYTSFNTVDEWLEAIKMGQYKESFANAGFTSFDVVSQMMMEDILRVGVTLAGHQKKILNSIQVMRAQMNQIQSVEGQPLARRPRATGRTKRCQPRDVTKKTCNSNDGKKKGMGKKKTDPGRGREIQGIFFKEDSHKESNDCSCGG
# Summary of the method: as §1
# [5] = molecular target: T5, ERBB2/HER2 (Homo sapiens, UniProt P04626)
# T5 construct: purchased Reaction Biology Corp
# Summary of the method: as §1
# [6] = molecular target: T6, MEKK1 (Homo sapiens, UniProt Q13233)
# T6 construct: purchased Reaction Biology Corp
# Summary of the method: as §1
# [7] = molecular target: T7, PAK6 (Homo sapiens, UniProt Q9NQU5)
# T7 construct: purchased Reaction Biology Corp
# Summary of the method: as §1
# [8] = molecular target: T8, STK32C/YANK3 (Homo sapiens, UniProt Q86UX6)
# T8 construct: purchased Reaction Biology Corp
# Summary of the method: as §1
# [9] = molecular target: T9, STK33 (Homo sapiens, UniProt Q9BYT3)
# T9 construct: purchased Reaction Biology Corp
# Summary of the method: as §1
# [10] = molecular target: T10, TLK2 (Homo sapiens, UniProt Q86UE8)
# T10 construct: purchased Reaction Biology Corp
# Summary of the method: as §1
# [11] = molecular target: T11, YES/YES1 (Homo sapiens, UniProt P07947)
# T11 construct: purchased Reaction Biology Corp
# Summary of the method: as §1
# [12] = read-out: % Enzyme Activity (relative to DMSO controls) Run 1
# [13] = read-out: % Enzyme Activity (relative to DMSO controls) Run 2
# T10 sequence (Q86UE8 whole entry): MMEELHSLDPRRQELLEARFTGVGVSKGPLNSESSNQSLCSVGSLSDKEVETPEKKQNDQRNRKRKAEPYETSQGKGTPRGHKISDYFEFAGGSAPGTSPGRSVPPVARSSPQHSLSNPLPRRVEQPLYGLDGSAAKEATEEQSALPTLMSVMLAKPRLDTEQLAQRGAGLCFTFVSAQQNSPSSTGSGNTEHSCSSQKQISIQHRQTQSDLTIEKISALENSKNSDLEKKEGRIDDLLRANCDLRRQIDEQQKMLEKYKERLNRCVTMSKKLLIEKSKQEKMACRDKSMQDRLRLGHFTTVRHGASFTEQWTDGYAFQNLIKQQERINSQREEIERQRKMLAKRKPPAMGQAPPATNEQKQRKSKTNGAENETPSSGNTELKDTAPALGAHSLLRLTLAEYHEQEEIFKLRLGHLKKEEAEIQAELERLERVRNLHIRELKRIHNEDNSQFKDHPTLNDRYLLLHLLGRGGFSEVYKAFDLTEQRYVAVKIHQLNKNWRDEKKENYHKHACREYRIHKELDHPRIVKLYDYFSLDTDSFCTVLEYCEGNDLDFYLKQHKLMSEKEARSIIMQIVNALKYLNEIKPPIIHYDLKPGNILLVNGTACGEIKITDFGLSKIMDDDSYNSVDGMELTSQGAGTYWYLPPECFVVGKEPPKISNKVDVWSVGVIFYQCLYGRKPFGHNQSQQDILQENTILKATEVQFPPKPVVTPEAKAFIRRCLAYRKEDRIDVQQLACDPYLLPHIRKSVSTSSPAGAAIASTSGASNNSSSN
# T7 sequence (Q9NQU5 whole entry): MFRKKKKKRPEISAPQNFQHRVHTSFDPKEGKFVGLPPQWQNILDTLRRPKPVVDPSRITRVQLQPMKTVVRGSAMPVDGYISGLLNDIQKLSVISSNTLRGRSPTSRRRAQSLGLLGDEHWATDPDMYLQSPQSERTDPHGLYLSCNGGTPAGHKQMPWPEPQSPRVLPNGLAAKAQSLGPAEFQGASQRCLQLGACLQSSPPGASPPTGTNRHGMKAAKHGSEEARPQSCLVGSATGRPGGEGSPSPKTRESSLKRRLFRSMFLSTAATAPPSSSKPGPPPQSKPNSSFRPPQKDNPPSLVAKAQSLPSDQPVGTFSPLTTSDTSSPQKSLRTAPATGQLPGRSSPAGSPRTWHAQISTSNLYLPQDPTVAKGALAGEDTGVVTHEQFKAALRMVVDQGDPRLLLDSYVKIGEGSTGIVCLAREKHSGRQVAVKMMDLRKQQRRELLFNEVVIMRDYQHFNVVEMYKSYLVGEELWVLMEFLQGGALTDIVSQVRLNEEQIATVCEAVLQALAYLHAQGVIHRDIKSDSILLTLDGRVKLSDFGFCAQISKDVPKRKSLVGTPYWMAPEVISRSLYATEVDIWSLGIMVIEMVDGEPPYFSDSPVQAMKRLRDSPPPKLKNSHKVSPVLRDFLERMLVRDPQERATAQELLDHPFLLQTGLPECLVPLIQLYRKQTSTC
# T9 sequence (Q9BYT3 whole entry): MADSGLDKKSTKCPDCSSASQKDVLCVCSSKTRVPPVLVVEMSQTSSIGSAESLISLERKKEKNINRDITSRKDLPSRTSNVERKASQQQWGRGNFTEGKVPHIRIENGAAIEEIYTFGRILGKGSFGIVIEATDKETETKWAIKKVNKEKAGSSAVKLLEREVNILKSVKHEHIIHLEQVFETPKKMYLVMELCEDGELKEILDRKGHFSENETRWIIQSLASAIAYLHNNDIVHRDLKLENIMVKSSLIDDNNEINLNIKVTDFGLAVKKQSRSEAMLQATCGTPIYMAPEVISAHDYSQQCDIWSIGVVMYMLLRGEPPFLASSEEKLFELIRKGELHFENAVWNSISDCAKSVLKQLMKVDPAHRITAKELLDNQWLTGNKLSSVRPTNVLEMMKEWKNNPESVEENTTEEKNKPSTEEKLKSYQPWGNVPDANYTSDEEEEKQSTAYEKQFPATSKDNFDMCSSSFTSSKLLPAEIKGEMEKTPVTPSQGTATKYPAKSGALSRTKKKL
# T6 sequence (Q13233 whole entry): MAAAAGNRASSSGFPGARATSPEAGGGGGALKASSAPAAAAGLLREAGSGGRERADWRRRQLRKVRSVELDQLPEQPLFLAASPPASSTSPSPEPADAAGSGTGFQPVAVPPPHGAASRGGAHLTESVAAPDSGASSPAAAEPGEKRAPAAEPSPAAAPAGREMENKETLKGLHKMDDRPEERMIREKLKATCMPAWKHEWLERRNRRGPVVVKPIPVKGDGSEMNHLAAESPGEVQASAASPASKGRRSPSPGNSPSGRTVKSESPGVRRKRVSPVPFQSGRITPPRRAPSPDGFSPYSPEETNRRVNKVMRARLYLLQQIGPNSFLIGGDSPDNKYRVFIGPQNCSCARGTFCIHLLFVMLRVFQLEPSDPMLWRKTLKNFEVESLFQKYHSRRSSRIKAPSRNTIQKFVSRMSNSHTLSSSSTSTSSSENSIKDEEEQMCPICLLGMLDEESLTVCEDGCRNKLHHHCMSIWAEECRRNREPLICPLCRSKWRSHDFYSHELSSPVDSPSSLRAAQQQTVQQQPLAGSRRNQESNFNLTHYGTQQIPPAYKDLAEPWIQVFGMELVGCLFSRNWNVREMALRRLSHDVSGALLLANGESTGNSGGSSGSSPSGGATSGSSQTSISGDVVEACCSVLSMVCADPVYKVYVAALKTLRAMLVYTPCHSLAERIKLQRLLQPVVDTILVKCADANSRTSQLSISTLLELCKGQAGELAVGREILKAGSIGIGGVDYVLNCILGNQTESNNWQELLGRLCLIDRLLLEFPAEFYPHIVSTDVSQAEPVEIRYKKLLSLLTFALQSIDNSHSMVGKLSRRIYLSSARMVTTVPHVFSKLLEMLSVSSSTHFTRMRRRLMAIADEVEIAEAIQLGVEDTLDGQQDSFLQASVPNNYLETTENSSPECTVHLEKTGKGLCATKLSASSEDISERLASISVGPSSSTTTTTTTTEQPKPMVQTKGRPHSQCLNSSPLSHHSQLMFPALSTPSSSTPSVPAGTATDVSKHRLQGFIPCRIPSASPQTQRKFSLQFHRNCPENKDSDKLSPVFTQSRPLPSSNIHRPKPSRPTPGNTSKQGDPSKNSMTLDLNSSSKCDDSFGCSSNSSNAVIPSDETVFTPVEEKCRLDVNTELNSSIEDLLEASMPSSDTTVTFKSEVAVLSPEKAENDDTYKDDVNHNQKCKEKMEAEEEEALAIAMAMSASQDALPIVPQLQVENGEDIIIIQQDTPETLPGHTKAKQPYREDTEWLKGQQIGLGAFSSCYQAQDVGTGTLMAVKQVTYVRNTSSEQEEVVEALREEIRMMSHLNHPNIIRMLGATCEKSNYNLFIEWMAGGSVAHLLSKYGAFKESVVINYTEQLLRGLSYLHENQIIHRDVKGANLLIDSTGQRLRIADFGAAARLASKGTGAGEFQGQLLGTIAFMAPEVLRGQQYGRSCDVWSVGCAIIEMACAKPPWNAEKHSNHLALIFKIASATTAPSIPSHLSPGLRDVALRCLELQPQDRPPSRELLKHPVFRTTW
# T2 sequence (Q00534 whole entry): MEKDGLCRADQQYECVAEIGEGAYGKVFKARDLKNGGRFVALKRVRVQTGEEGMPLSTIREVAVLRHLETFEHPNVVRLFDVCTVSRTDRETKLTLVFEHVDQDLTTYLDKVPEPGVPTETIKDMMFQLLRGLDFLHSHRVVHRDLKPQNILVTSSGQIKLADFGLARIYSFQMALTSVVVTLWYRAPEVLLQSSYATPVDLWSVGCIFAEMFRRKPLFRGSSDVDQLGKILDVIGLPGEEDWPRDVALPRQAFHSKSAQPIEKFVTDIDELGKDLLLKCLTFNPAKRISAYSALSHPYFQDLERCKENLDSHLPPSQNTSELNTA
# T2 sequence (P24385 whole entry partner): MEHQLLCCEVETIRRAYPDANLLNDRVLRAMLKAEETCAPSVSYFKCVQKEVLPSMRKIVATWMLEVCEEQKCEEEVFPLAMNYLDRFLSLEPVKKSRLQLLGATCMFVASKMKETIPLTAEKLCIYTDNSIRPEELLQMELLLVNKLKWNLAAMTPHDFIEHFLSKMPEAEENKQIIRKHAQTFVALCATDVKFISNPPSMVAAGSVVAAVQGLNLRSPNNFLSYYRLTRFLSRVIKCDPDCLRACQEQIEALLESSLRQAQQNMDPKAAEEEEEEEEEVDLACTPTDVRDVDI
# T8 sequence (Q86UX6 whole entry): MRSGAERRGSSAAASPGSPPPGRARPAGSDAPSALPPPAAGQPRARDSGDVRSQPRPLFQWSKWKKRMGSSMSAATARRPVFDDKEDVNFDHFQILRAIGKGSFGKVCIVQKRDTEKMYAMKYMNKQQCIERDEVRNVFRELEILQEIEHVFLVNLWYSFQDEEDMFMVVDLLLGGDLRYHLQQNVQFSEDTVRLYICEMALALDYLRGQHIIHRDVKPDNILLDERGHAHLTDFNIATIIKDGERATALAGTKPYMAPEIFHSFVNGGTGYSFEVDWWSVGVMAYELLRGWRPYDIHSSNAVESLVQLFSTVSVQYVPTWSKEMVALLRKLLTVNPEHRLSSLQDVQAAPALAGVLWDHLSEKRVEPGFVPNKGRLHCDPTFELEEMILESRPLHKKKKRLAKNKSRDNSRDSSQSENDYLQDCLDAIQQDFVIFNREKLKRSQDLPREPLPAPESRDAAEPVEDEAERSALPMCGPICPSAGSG
compound,measurement,setting,value
C=CC(=O)Nc1cccc(Nc2nc(Nc3ccc(OCCOC)c(F)c3)ncc2F)c1 [Compound 2],inhibition at 3 µM,[1],-18%
same,remaining activity at 3 µM,[1]; [12],112%
same,remaining activity at 3 µM,[1]; [13],124%
same,inhibition at 3 µM,[2],-0.92%
same,remaining activity at 3 µM,[2]; [12],101%
same,remaining activity at 3 µM,[2]; [13],100%
same,inhibition at 3 µM,[3],10.3%
same,remaining activity at 3 µM,[3]; [12],87.8%
same,remaining activity at 3 µM,[3]; [13],91.5%
same,inhibition at 3 µM,[4],-5.45%
same,remaining activity at 3 µM,[4]; [12],104%
same,remaining activity at 3 µM,[4]; [13],107%
same,inhibition at 3 µM,[5],61.3%
same,remaining activity at 3 µM,[5]; [12],39.8%
same,remaining activity at 3 µM,[5]; [13],37.5%
same,inhibition at 3 µM,[6],-14.7%
same,remaining activity at 3 µM,[6]; [12],113%
same,remaining activity at 3 µM,[6]; [13],117%
same,inhibition at 3 µM,[7],18%
same,remaining activity at 3 µM,[7]; [12],79.3%
same,remaining activity at 3 µM,[7]; [13],84.8%
same,inhibition at 3 µM,[8],-6.01%
same,remaining activity at 3 µM,[8]; [12],105%
same,remaining activity at 3 µM,[8]; [13],107%
same,inhibition at 3 µM,[9],48.1%
same,remaining activity at 3 µM,[9]; [12],51.2%
same,remaining activity at 3 µM,[9]; [13],52.5%
same,inhibition at 3 µM,[10],-6.32%
same,remaining activity at 3 µM,[10]; [12],108%
same,remaining activity at 3 µM,[10]; [13],105%
same,inhibition at 3 µM,[11],81.5%
same,remaining activity at 3 µM,[11]; [12],18.7%
same,remaining activity at 3 µM,[11]; [13],18.3%
